Data set [1] concerns B16F10 mouse melanoma cells. The experiment in a line: Melanin content in α-MSH-stimulated B16F10 melanoma cells. The format is cell-based. Conditions: B16 cells, 48 h in the presence of α-MSH, read-out: Melanin Synthesis IC50. On the procedure:
(§1) The B16F10 mouse melanoma cell (American Type of Culture Collection, VA, USA) were cultured as previously reported. Briefly, the cells were incubated in DMEM containing 10% fetal bovine serum and 1% penicillin/streptomycin (Sigma–Aldrich, St. Louis, MO, USA) at 37 °C in a 5% CO2 humidified incubator.
For the analysis of melanin content accumulated in the cytosol, B16F10 mouse melanoma cells were seeded on to six-well plates at a density of 1 × 10^5 cells per well, and cultured for 24 h. Then, the cells were treated with 1 μM of α-MSH (Sigma–Aldrich, St. Louis, MO, USA) in the presence or absence of different concentrations of compound 1. Thereafter, the cells were collected using trypsin-EDTA (Lonza, Walkersville, MD, USA) and dissolved in 1 N NaOH, including 10% DMSO at 65 °C for 24 h. The melanin content was determined at 415 nm by a Bio-Rad microplate reader.

Data set [2] addresses T1, tyrosinase (monophenolase) (Agaricus bisporus, UniProt C7FF04).
T1 construct: purchased Sigma-Aldrich Co., St. Louis, MO, USA
The experiment in a line: Time-dependent assays and progress curves (slow-binding kinetics, lag phase). The format is biochemical, mushroom. Conditions: for Type of inhibitor (time-dependent inhibition): L-tyrosine, preincubation and progress curves. The protocol:
The assays were carried out using tyrosinase (260 units) and L-tyrosine as a substrate of monophenolase in 0.25 M phosphate buffer (pH 6.8) at 30 °C. The enzyme activity was recorded sequentially for 30 min by a UV spectrophotometer. To evaluate the time-dependent inhibition and the kinetic parameters of tyrosinase, progress curves with 30 s intervals were measured at different concentrations of the inhibitor and substrate. The data were through the use of Sigma Plot (SPCC Inc., Chicago, IL, USA) as a nonlinear regression program to provide the respective parameters for each curve; A (absorbance at 475 nm), vi (initial rate), vss (steady-state rate), kobs (apparent first-order rate constant for the transition from vi to vss), and Kiapp (apparent Ki) in accordance with the following Equations (2)–(5). (2) A=vsst+vi − vss1 −exp−kobst/kobs (3) v/v0=exp (−kobst) (4) kobs=k4 (1+[I]/Kiapp) (5) Kiapp=k4/k3
The value of −kobs was estimated by a slope of the straight line from the plot of the natural log of the residual enzyme activity vs. the preincubation time. The plot of kobs vs. the concentration of inhibitors gave the values of k3, k4, and Kiapp on the basis of Morrison and Walsh’s method.

Data set [3] addresses T2, tyrosinase (Agaricus bisporus, UniProt C7FF04).
T2 construct: purchased Sigma-Aldrich Co., St. Louis, MO, USA
Nature of the data set: HPLC analysis of tyrosinase inhibition with N-acetyl-L-tyrosine as substrate. Conditions: HPLC at 275 nm. The format is biochemical. On the procedure: The HPLC analysis of tyrosinase inhibition was carried out by giving minor alterations in the previous procedure with N-acetyl-L-tyrosine as a substrate. The 4.5 mM of the substrate was prepared in the 50 mM phosphate buffer (pH 6.8). Then, 670 units/mL tyrosinase (Sigma-Aldrich Co., St. Louis, MO, USA) solution and several concentrations of the inhibitor solution were arranged. The N-acetyl-L-tyrosine was observed on 275 nm with 4.6 min of tR by eluting the mobile phase consisting of A (H2O) and B (acetonitrile, ACN), with the following isocratic condition: 0–8 min and A/B = 90:10 (v/v). After 20 μL of the sample solution was subjected to the HPLC (Pack ODS-AQ C18 column, YMC) system, the reactions were measured every 15 min. All procedures were carried out at room temperature.

Data set [4] deals with B16F10 mouse melanoma cells. Nature of the data set: L-DOPA oxidation (cellular tyrosinase) in α-MSH-treated B16F10 melanoma cells. The note with it: B16 cells, 48 h in the presence of α-MSH. It is filed as cell-based. On the procedure: as §1
B16F10 mouse melanoma cells were seeded on to 6-well plates at a density of 1 × 10^5 cells per well and cultured for 24 h. Then, the cells were treated with α-MSH (1 μM) in the presence or absence of different concentrations of compound 1, followed by incubation for 48 h. The incubated cells were collected and dissolved with 1% Triton X-100 solution for 1 h on ice. Then, the cells were cultured for 4 h with 100 μL (2 mg/mL) L-DOPA in a 5% CO2 humidifying incubator at 37 °C condition. After that, by using a microplate reader (Bio-Rad), absorbance at 490 nm was measured.

In data set [5] the target is T3, Mushroom tyrosinase (diphenolase) (Agaricus bisporus, UniProt C7FF04).
T3 construct: purchased Sigma-Aldrich Co., St. Louis, MO, USA
T3 sequence (C7FF04 1-392): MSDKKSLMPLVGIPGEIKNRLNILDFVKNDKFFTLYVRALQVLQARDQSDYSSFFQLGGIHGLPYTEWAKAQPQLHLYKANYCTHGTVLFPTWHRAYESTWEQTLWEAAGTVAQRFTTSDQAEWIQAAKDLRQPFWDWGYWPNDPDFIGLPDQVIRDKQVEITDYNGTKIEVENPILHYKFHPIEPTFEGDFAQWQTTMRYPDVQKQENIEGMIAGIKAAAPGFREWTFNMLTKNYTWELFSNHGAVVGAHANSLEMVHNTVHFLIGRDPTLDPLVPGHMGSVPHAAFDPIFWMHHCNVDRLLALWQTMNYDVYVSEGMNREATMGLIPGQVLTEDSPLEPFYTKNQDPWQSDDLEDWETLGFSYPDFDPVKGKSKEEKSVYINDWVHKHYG
The experiment in a line: Mushroom tyrosinase diphenolase inhibition (L-DOPA as substrate, 475 nm). It is filed as biochemical. Conditions: for IC50: substrate L-DOPA. The protocol:
(§2) Mushroom tyrosinase (EC 1. 14. 18. 1) (Sigma-Aldrich Co., St. Louis, MO, USA) activity was performed in accordance with the previously described method with subtle modification, using L-tyrosine and L-3,4-dihydroxylphenylalanine (L-DOPA) for monophenolase and diphenolase as substrates, respectively. Two hundred sixty units/mL of the tyrosinase stock solution was prepared at optimum pH 6.8 (0.05 M phosphate buffer). The inhibitors were initially dissolved in DMSO and diluted to several concentrations. […] Then, 10 μL of the enzyme was added to the mixture. Subsequent absorbance of DOPA chrome formation was recorded at 475 nm by means of an UV-Vis spectrophotometer (SpectraMax M3, Molecular Devices, San Jose, CA, USA) in a 96-well microplate at 30 °C. Three separate determinations were conducted for each assay.
(§3) The characteristic of tyrosinase inhibition was represented by Lineweaver−Burk double-reciprocal-plot and Dixon plot at specified concentrations of the substrates and inhibitors, respectively.

Data set [6] addresses T2, tyrosinase. The experiment in a line: Fluorescence quenching measurement of binding affinity to tyrosinase. The protocol:
To measure fluorescence from the tyrosinase enzyme, 10 μL of 260 unit/mL enzyme solution with 165 μL of phosphate buffer (0.05 M) were added into 96-well black immunoplates. Afterward, 5 μL of various concentrations (2.5–20 μM) of inhibitor was added into each well. All fluorescence spectra were obtained by a SpectraMax M3 spectrophotometer (Molecular Devices, San Jose, CA, USA). The spectra were measured from 300 to 400 nm with emission slits regulated to 2.0 nm, and the excitation wavelength was 265 nm. The Stern–Volmer quenching constant (KSV) was estimated using Equation (6). All experiments were carried out in triplicate, and the mean values were calculated. (6) […] where F0 and F are the fluorescence intensities in the absence and presence of quencher (Q). KSV is the Stern–Volmer quenching constant [L M^−1]. For static quenching, the correlation between the fluorescence intensity and the concentration of the quencher for the series of reactions can be expressed by Equation (7). (7) log[(F0 − F)/F]=logKA+nlog[Q]f
F0 and F are the fluorescence intensities in the absence and presence of inhibitor; KA is the binding constant; n is the number of binding sites of the enzyme; Qf is the concentration of inhibitor [24].

Data set [7] deals with T4, Mushroom tyrosinase (monophenolase) (Agaricus bisporus, UniProt C7FF04).
T4 construct: purchased Sigma-Aldrich Co., St. Louis, MO, USA
T4 sequence (C7FF04 1-392): as above
Nature of the data set: Mushroom tyrosinase monophenolase inhibition (L-tyrosine as substrate, 475 nm). The format is biochemical. The note with it: for L-Tyrosine Inhibition Mode: Lineweaver–Burk plot; for IC50: substrate L-tyrosine. On the procedure:
as §2, §3

Data set [8] deals with B16F10 mouse melanoma cells. The experiment in a line: Cell viability assay (MTT) in B16F10 melanoma cells. It is filed as cell-based. The note with it: B16 cells, 48 h. The protocol: as §1
The cell viability assay of the B16F10 mouse melanoma cells were conducted with subtle variation in previous methods. The cells were incubated in 96-well plates overnight. […] After incubation, 5 μg/mL of MTT solution was added to the each well and the cells were incubated for 3 h. After the medium was removed, the cells were treated with dimethyl sulfoxide (DMSO) and cultured at room temperature for 20 min. The absorbance at 595 nm was measured on a Bio-Rad microplate reader (Hercules, CA, USA).

Setting [9] is: slow-binding, L-tyrosine as substrate.
The mark [10] stands for this setting: pH 6.8, 30 °C, read-out: L-DOPA IC50 Value (diphenolase).
The mark [11] stands for this setting: pH 6.8, 30 °C, read-out: L-Tyrosine IC50 Value (monophenolase).

This is an account of results in paper PMC7287670, “Tyrosinase Inhibition and Kinetic Details of Puerol A Having But-2-Enolide Structure from Amorpha fruticosa” (Molecules, 2020).

Each structure is given as a SMILES string. Like-named read-outs stand apart in the source and are kept apart here.

T2 sequence (C7FF04 1-392): as above
T1 sequence (C7FF04 1-392): as above

Consider `O=C1C=C(c2ccc(O)cc2O)C(Cc2ccc(O)cc2)O1` (stereo not shown) [Compound 1, Puerol A], for which the IC50 stood at 11.4 ± 1.2 µM in data set [1], 23.9 ± 1.4 µM in data set [4], 3.88 ± 0.3 µM in data set [5] (setting [10]) and 2.2 ± 0.2 µM in data set [7] (setting [11]). Further, the Ki was found to be 0.107 µM in data set [2] (Kiapp = k4/k3); 1.95 µM in data set [5] (diphenolase, Dixon plot); 0.87 µM in data set [7] (monophenolase, Dixon plot). Also, the “Type of inhibitor (time-dependent inhibition)” value in data set [2] was “simple, reversible, slow-binding inhibitor”; in data set [2] (listed as Puerol A), “reversible, competitive, simple slow-binding inhibitor”; in data set [2] (listed as puerol A), “competitive inhibitor and reversible, simple slow-binding inhibitor”. Moreover, the “lag phase of L-tyrosine oxidation” value in data set [2] (inhibitor 0.5–8.0 μM, 60 s without inhibitor) is “up to 600 s”. This compound also registered a k3 in data set [2] (setting [9]) of 465 M⁻¹ s⁻¹. In addition, the k4 in data set [2] (setting [9]) was determined as 0.003 min⁻¹. Further, the “oxidation of N-acetyl-L-tyrosine blocked” value is reported as 56% on tyrosinase [3] (5 μM); 86% on tyrosinase [3] (10 μM); “completely inhibited” at tyrosinase [3] (20 μM, listed as Puerol A); 95% at tyrosinase [3] (20 μM, listed as puerol A). Also, the “L-DOPA Inhibition Mode” value in data set [5] (diphenolase, Lineweaver–Burk plot) is on record as “competitive inhibition mode”. In addition, the “n (number of binding sites)” value at tyrosinase [6] (from log[(F0 − F)/F] plot) is “one”. Moreover, on tyrosinase [6] (inhibitor 2.5–20 μM, excitation 265 nm, emission 300–400 nm), the “KSV (Stern–Volmer quenching constant)” value was found to be 145000 L/mol. The Reversibility of inhibition entry in data set [7] (initial velocity vs tyrosinase and inhibitor concentrations) is “reversible inhibitor”. Further, the “L-Tyrosine Inhibition Mode” value in data set [7] (monophenolase) is “Competitive”; in data set [7] (monophenolase, listed as puerol A) it was “competitively”. Also, the “Cytotoxicity LD50” value in data set [8] is 137.8 ± 1.2 µM.
As to `O=C1C=C(c2ccc(O)cc2O[C@@H]2O[C@H](CO)[C@@H](O)[C@H](O)[C@H]2O)C(Cc2ccc(O)cc2)O1` (stereo partly shown) [Compound 2, Kuzubutenolide A], the IC50 in data set [5] (setting [10]) is over 200 µM; in data set [5] (read-out: IC50 diphenolase), 1900 µM; in data set [7] (setting [11]), over 200 µM; in data set [7] (read-out: IC50 monophenolase), 1500 µM.
`O=c1cc(CO)occ1O` [Kojic acid, reference compound]: the IC50 in data set [1] and in data set [4] was over 500 µM in each case. In addition, the “Cytotoxicity LD50” value in data set [8] was over 500 µM.
